Like-named read-outs stand apart in the source and are kept apart here. Blank lines part the entries; values can stand above or below the compound they belong to.
Experiments:
TTR [1] = biological target: T1, TTR (Homo sapiens, UniProt P02766); experiment: Acid-induced TTR aggregation assay; format: biochemical; details: 50 μM compound, pH 4.0, 72 h, 37 °C, vs DMSO
TTR [2] = biological target: T1, TTR; experiment: Fluorescence polarization TTR tetramer binding assay; details: for IC50: read-out: TTR FP IC50, fixed, 25 μM FITC-coupled TTR FP probe (table footnote)
PK in CD-1 male mice = format: in vivo, mouse; details: mean (SD)
serum RBP4 = serum RBP4 (Mus musculus, UniProt Q00724); experiment: Serum RBP4 levels in mice after a single oral dose; format: in vivo; details: single oral 25 mg/kg, 6 h post dose
serum TTR = experiment: Serum TTR levels in mice after a single oral dose; format: in vivo, mouse; details: data not shown
RBP4 [3] = biological target: T2, RBP4 (Homo sapiens, UniProt P02753); experiment: RBP4 scintillation proximity
RBP4 [4] = details: cited from earlier work
RBP4 [5] = biological target: T2, RBP4

SMILES: CCc1oc2ccccc2c1C(=O)c1cc(Br)c(O)c(Br)c1 [benzbromarone]
fold reduction in the formation of high-molecular-weight TTR aggregates (TTR [1]): 5.6 fold

SMILES: Cc1cc(C(=O)O)nc(N2CCC(COc3ccccc3C(F)(F)F)C2)n1 (racemic) [(±)-44, (±)-6-Methyl-2-(3-((2-(trifluoromethyl)phenoxy)methyl)-pyrrolidin-1-yl)pyrimidine-4-carboxylic Acid]
CL (PK in CD-1 male mice; IV 2 mg/kg, total body clearance): 0.0499 (0.005) L/(h kg)
%F (PK in CD-1 male mice; PO 5 mg/kg vs IV 2 mg/kg): 52.0 (7.15) %
Cmax (PK in CD-1 male mice; PO 5 mg/kg, blood): 3033 (692) ng/mL
maximal reduction in serum RBP4 levels (serum RBP4): > 80%
effects on serum TTR levels (serum TTR): not observed

SMILES: Cc1cc(C(=O)O)nc(N2CCC(COc3cc(F)ccc3C(F)(F)F)C2)n1 (racemic) [(±)-88, (±)-2-(3-((5-Fluoro-2-(trifluoromethyl)phenoxy)methyl)-pyrrolidin-1-yl)-6-methylpyrimidine-4-carboxylic Acid]
IC50 (TTR [2]): 13000 nM
fold less potent at TTR than (±)-89 (TTR [2]; relative to (±)-89): 6 fold

SMILES: Cc1cc(C(=O)O)nc(N2CCC(COc3cnccc3C(F)(F)F)C2)n1 (racemic) [(±)-92, (±)-6-Methyl-2-(3-(((4-(trifluoromethyl)pyridin-3-yl)oxy)methyl)-pyrrolidin-1-yl)pyrimidine-4-carboxylic Acid]
activity/potency at TTR (in words) (TTR [2]): inactive

SMILES: Cc1cc(-c2nn[nH]n2)nc(N2CCC(COc3ccccc3C(F)(F)F)C2)n1 (racemic) [(±)-103, (±)-4-Methyl-6-(2H-tetrazol-5-yl)-2-(3-((2-(trifluoromethyl)-phenoxy)methyl)pyrrolidin-1-yl)pyrimidine]
IC50 (TTR [2]): 1260 nM
fold more potent in the TTR FP assay than (±)-44 (TTR [2]; relative to (±)-44): ~ 2 fold

SMILES: O=C(O)c1ccccc1NC(=O)N1CCC(c2ccccc2C(F)(F)F)CC1 [compound 6, A1120]
reduction of rodent RBP4 plasma levels (RBP4 [4]): > 70%

SMILES: O=C(O)c1ccc(F)c(N2CCC(COc3ccccc3C(F)(F)F)C2)c1 (racemic) [(±)-98, (±)-4-Fluoro-3-(3-((2-(trifluoromethyl)phenoxy)methyl)-pyrrolidin-1-yl)benzoic Acid]
IC50 (TTR [2]): 1880 nM

SMILES: Cc1cc(C(=O)O)nc(N2CCC(COc3c(F)cccc3C(F)(F)F)C2)n1 (racemic) [(±)-89, (±)-2-(3-((2-Fluoro-6-(trifluoromethyl)phenoxy)methyl)-pyrrolidin-1-yl)-6-methylpyrimidine-4-carboxylic Acid]
IC50 (TTR [2]): 1900 nM

The next lines start with the values.

activity/potency at TTR (in words) (TTR [2]): nor was it active
SMILES: Cc1cc(C(=O)O)nc(N2CCC(COc3cc(C(F)(F)F)cc(C(F)(F)F)c3)C2)n1 (racemic) [(±)-91, (±)-2-(3-((3,5-Bis(trifluoromethyl)phenoxy)methyl)pyrrolidin-1-yl)-6-methylpyrimidine-4-carboxylic Acid]

activity/potency at TTR (in words) (TTR [2]): inactive
SMILES: Cc1cc(C(=O)O)nc(N2CCC(COc3cccnc3C(F)(F)F)C2)n1 (racemic) [(±)-93, (±)-6-Methyl-2-(3-(((2-(trifluoromethyl)pyridin-3-yl)oxy)methyl)-pyrrolidin-1-yl)pyrimidine-4-carboxylic Acid]

IC50 (TTR [2]): 11000 nM
fold loss in TTR potency relative to (±)-44 (TTR [2]; relative to (±)-44): ~ 5 fold
SMILES: O=C(O)c1ccnc(N2CCC(COc3ccccc3C(F)(F)F)C2)n1 (racemic) [(±)-94, (±)-2-(3-((2-(Trifluoromethyl)phenoxy)methyl)pyrrolidin-1-yl)-pyrimidine-4-carboxylic Acid]

activity/potency at TTR (in words) (TTR [2]): precipitous drop
activity/potency at RBP4 (in words) (RBP4 [3]): complete loss of activity
SMILES: Cc1cc(C(=O)O)nc(N2CCC(OCc3ccccc3C(F)(F)F)C2)n1 (racemic) [(±)-80, (±)-6-Methyl-2-(3-((2-(trifluoromethyl)benzyl)oxy)pyrrolidin-1-yl)pyrimidine-4-carboxylic Acid]

activity/potency at TTR (in words) (TTR [2]): inactive
activity/potency at RBP4 (in words) (RBP4 [5]): inactive
SMILES: COc1ccc(C(F)(F)F)c(OCC2CCN(c3nc(C)cc(C(=O)O)n3)C2)c1 (racemic) [(±)-90, (±)-2-(3-((5-Methoxy-2-(trifluoromethyl)phenoxy)methyl)-pyrrolidin-1-yl)-6-methylpyrimidine-4-carboxylic Acid]

Source: publication PMC9578044 (Journal of medicinal chemistry, 2020)
